Experimental findings from US12582619B2 (priority 2020, dated 2026) are described below.

The target of data set [1] is T1, Androgen Receptor (Homo sapiens, UniProt P10275).
T1 sequence (P10275 1-920): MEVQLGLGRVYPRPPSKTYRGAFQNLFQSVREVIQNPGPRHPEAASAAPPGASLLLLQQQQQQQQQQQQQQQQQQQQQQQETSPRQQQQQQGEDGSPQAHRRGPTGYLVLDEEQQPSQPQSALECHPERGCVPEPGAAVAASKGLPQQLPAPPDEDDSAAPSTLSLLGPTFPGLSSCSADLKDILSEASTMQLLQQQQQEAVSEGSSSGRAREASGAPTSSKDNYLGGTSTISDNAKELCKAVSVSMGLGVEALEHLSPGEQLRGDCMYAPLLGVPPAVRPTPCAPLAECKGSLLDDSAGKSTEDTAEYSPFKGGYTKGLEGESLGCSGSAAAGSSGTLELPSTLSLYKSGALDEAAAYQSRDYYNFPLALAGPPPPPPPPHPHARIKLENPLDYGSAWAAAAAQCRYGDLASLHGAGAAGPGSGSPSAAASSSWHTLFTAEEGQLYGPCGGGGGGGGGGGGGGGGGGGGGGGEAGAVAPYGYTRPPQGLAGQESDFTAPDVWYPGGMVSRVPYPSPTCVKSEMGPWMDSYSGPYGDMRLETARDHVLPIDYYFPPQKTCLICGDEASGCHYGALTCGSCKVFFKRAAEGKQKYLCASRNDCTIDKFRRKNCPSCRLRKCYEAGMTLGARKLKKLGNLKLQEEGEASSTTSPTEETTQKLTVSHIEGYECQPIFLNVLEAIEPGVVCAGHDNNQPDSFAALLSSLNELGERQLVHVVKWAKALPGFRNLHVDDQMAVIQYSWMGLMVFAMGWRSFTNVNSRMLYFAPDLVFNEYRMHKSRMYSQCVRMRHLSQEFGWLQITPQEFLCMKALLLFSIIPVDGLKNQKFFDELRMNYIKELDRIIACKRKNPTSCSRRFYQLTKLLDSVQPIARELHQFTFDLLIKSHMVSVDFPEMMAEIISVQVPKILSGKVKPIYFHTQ
The experiment in a line: cell-based.

The next data set has as its target Sigma1 (Homo sapiens, UniProt Q99720). The data set can be described thus: Sigma1 binding, Ki.
Another data set concerns Zika Virus. The experiment in a line: Zika virus infection of U2OS cells, qPCR. It counts as cell-based. Particulars: MOI 1, ~16-18 hours, CT110 10 μM, CT1107 2.5-10 μM, FIG. 11. As for the experimental part:
U2OS cells were treated with DMSO or 10 μM of CT110 (also known as CT189, left graph) or DMSO or 2.5 μM, 5 μM, 7.5 μM, and 10 μM CT1107 (right graph). 2 hours after starting treatment, U2OS cells were infected with a multiplicity of infection (MOI) of 1 for Zika Virus and incubated at 37° C. for ˜16-18 hours. Cells were harvested with Trizol and RNA was extracted for qPCR. Y-axis indicates fold change in infection.

For data set [2], the system named is VeroE6 cells stably expressing TMPRSS2. The experiment in a line: Toxicity in VeroE6/TMPRSS2 cells. The class given is cell-based. Conditions: VeroE6/TMPRSS2 cells, 5, 7.5, 10 μM. The method, then: (§1) It was tested whether Sigma1-targeting compounds are antiviral in additional cell lines. VeroE6 cells stably expressing TMPRSS2and Caco-2 (human colorectal epithelial cells) were tested. […] In certain embodiments, these compounds are antiviral in primary respiratory epithelial cells.

In the next data set the test system is human TMPRSS2. The class given is cell-based. Conditions: Vero E6 lysates, 10 μM, FIG. 7.
For data set [3], the system named is SARS-CoV-2. The experiment in a line: SARS-CoV-2 infection of VeroE6/TMPRSS2 cells, qRT-PCR. It counts as cell-based. Conditions: VeroE6/TMPRSS2 cells, 5, 7.5, 10 μM, 48 hours, FIG. 8. The method, then:
(§2) FIG. 8 illustrates results obtained when VeroE6/TMPRSS2 or Caco2 cells were treated with DMSO or 5 μM, 7.5 μM, and 10 μM CT1107 and infected with SARS-CoV-2 for 48 hours. RNA was isolated and qRT-PCR was performed with virus-specific and 18S primers. Viral RNA was normalized to 18S RNA.
as §1
On the technique in general: In qPCR the cycle at which signal appears reflects the starting amount.

Another data set deals with Powassan Virus. The class given is cell-based. Particulars: U2OS, MOI 1, ~16-18 hours; CT110 10 μM, CT1107 2.5-10 μM, FIG. 12.
Data set [4] concerns SARS-CoV-2. The data set can be described thus: Infection of Huh7.5 cells by replication competent SARS-CoV-2, qRT-PCR. Particulars: 10 μM, 24 hours post inoculation. The class given is cell-based. As for the experimental part: FIG. 3 illustrates the finding that only certain Sigma1 inhibitors block SARS-CoV-2 infection. […] Results can be compared to vehicle (DMSO), Remdesivir (Rem, 10 μM), and hydroxychloroquine (HCQ, 10 μM). Compounds and SARS-CoV-2 were added to cell culture; 24 hours post inoculation relative infection calculated by qRT-PCR.
A discrete set of Sigma1 modulators was tested in an assay of replication competent SARS-CoV-2 infectivity. […] Strikingly, IPAG, CT189, and CT1107 blocked SARS-CoV-2 infection by 1,000 (IPAG, CT189, CT360) to 10,000 (CT1107) fold.

The subject of a further data set is Dengue Virus. The experiment in a line: Dengue virus infection of U2OS cells, qPCR. Conditions: MOI 1, ~16-18 hours, CT110 10 μM, CT1107 2.5-10 μM, FIG. 10. The class given is cell-based. As for the experimental part: U2OS cells were treated with DMSO or 10 μM of CT110 (also known as CT189, left graph) or DMSO or 2.5 μM, 5 μM, 7.5 μM, and 10 μM CT1107 (right graph). 2 hours after starting treatment, U2OS cells were infected with a multiplicity of infection (MOI) of 1 for Dengue Virus and incubated at 37° C. for ˜16-18 hours. Cells were harvested with Trizol and RNA was extracted for qPCR. Y-axis indicates fold change in infection.

Data set [5] deals with Vero E6 cells expressing SARS-CoV-2 spike and human TMPRSS2. It counts as cell-based. Conditions: Vero E6, 10 μM vs DMSO.
Data set [6] concerns Caco-2 (human colorectal epithelial cells). The experiment in a line: Toxicity in Caco-2 cells. Particulars: Caco-2 cells, 5, 7.5, 10 μM. The class given is cell-based. The method, then: as §1
Data set [7] deals with SARS-CoV-2. The experiment in a line: SARS-CoV-2 infection of Caco2 cells, qRT-PCR. It counts as cell-based. Particulars: Caco2 cells, 5, 7.5, 10 μM, 48 hours, FIG. 8. As for the experimental part:
as §2, §1

The target of data set [8] is T1, Androgen Receptor.

Entries after “also recorded” stand apart in the source; their conditions may differ.

Sequence of Sigma1 (Q99720 whole entry): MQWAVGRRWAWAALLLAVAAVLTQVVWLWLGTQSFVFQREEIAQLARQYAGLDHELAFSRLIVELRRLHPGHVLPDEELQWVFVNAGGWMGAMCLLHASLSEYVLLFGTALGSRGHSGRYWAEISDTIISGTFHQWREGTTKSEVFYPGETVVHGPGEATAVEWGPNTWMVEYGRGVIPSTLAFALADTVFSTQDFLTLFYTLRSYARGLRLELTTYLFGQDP

In general, IC50 refers to the concentration at which inhibition is half-maximal. Low readings indicate inhibition by little substance, high ones a need for much substance. The term Ki denotes a dissociation constant, usually derived from enzyme kinetics or from competition with a known ligand. `CC(C)(CCNC(=N)Nc1cnc(Cl)c(F)c1)Oc1ccc(C(F)(F)F)cc1` [Compound E, 1-(6-chloro-5-fluoropyridin-3-yl)-3-(3-methyl-3-(4-(trifluoromethyl)phenoxy)butyl)guanidine] yielded an IC50 against Androgen Receptor [1] of 5000 nM. In addition, the Ki on Sigma1 turned out to be 5 nM.
In the case of `COc1cc(NC(=N)NCCC(C)(C)c2ccc(C(F)(F)F)cc2)ncc1C#N` [Compound F, 1-(5-cyano-4-methoxypyridin-2-yl)-3-(3-methyl-3-(4-(trifluoromethyl)phenyl)butyl)guanidine], the “Zika virus infection (fold change in infection)” value with Zika Virus is reported as “inhibit Zika virus infection”. Also, the toxicity result in [2] and in [6] was “without toxicity” throughout. Moreover, the TMPRSS2 protein level result in the data set on human TMPRSS2 is reported as “clear decrease”. The “antiviral effect on SARS-CoV-2” value in the data set on SARS-CoV-2 [3] and in the data set with SARS-CoV-2 [7] was “potently antiviral” throughout. Besides, at Androgen Receptor [1], the concentration for half-maximal inhibition (IC50) worked out at 3000 nM. Moreover, in the data set on Powassan Virus, the “Powassan virus infection (fold change in infection)” value was “inhibit Powassan virus infection”. In addition, the “blocked SARS-CoV-2 infection, fold” value with SARS-CoV-2 [4] (FIG. 3) is 10,000 fold. In the data set on SARS-CoV-2 [4] (FIG. 3, listed as CT1107), the “effect on SARS-CoV-2 infection (in words)” value (from here on “effect … (in words)”) is reported as “suppressed SARS-CoV-2 infection; also recorded: inhibit SARS-CoV-2 infection; also recorded: most potent inhibitor of CoV-2 infection”. The compound also displayed a Ki at Sigma1 of 11 nM. The “Dengue virus infection (fold change in infection)” value in the data set with Dengue Virus is recorded as “inhibit dengue virus infection”. Moreover, in [5] (FIG. 5), the number of syncytia entry was “significant decrease”. In addition, the “size of syncytia (number of nuclei per syncytia)” value in [5] (FIG. 6) was “significant decrease”.
With `COc1cc(NC(=N)NCCC(C)(C)Oc2ccc(C(F)(F)F)cc2)cnc1C#N` [Compound A, 1-(6-cyano-5-methoxypyridin-3-yl)-3-(3-methyl-3-(4-(trifluoromethyl)phenoxy)butyl)guanidine], the IC50 at Androgen Receptor [1] came to 8100 nM. On Sigma1, this compound displayed a Ki of 9 nM.
Regarding `N=C(NCCCOc1ccc(F)cc1)Nc1ccc(Cl)cc1` [CT189], the “dihydrotesterone (DHT) induced AR transcriptional activity” value at Androgen Receptor [8] is on record as “inhibition”. Further, in the data set on Zika Virus, the “Zika virus infection (fold change in infection)” value was “inhibit Zika virus infection”. For the same compound, in the data set on Powassan Virus, the “Powassan virus infection (fold change in infection)” value was “inhibit Powassan virus infection”. Also, in the data set on SARS-CoV-2 [4] (FIG. 3), the “blocked SARS-CoV-2 infection, fold” value is 1,000 fold and the “effect … (in words)” value was “suppressed SARS-CoV-2 infection; also recorded: inhibit SARS-CoV-2 infection”. For the same compound, the “Dengue virus infection (fold change in infection)” value with Dengue Virus is “inhibit dengue virus infection”.
Regarding `Cc1cc(OCCN2CCOCC2)nn1-c1ccc2ccccc2c1` [Compound S1RA, 4-[2-[[5-methyl-1-(2-naphthalenyl)-1H-pyrazol-3-yl]oxy]ethyl]morpholine, reference compound], the “effect … (in words)” value in the data set with SARS-CoV-2 [4] (FIG. 3) is “did not block infection; also recorded: does not block infection”.
In turn, `COC(=O)c1ccc(NC(=N)NCC(C)(C)COc2ccc(C(F)(F)F)cc2)nc1` [Compound H, methyl 6-(3-(2,2-dimethyl-3-(4-(trifluoromethyl)phenoxy)propyl)guanidino)nicotinate] yielded an IC50 against Androgen Receptor [1] of 2900 nM. In the data set with SARS-CoV-2 [4] (FIG. 3), the “blocked SARS-CoV-2 infection, fold” value is listed as 1,000 fold and the “effect … (in words)” value is recorded as “inhibit SARS-CoV-2 infection”. Further, the affinity at Sigma1, expressed as Ki, was 18 nM.
`COC(=O)c1ccc(NC(=N)NCCC(C)(C)c2ccc(C(F)(F)F)cc2)nc1` [Compound G, methyl 6-(3-(3-methyl-3-(4-(trifluoromethyl)phenyl)butyl)guanidino)nicotinate]: the 50% inhibitory concentration (IC50) against Androgen Receptor [1] was 2800 nM. On Sigma1, affinity was put at a Ki of 3 nM.
The corresponding values for `COc1cc(NC(=N)NCCC(C)(C)Oc2ccc(C(F)(F)F)cc2)cnc1C#N` [Compound J, 1-(6-cyano-5-methoxypyridin-3-yl)-3-(3-methyl-3-(4-(trifluoromethyl)phenoxy)butyl)guanidine] are 8500 nM and 7 nM.
The corresponding values for `CC(C)(CCNC(=N)Nc1ccc(Cl)c(Cl)c1)Oc1ccc(C(F)(F)F)cc1` [Compound D, 1-(3,4-dichlorophenyl)-3-(3-methyl-3-(4-(trifluoromethyl)phenoxy)butyl)guanidine] are 3000 nM and 8 nM.
In turn, `CC(C)(CCNC(=N)Nc1cnc(C(F)(F)F)nc1)Oc1ccc(C(F)(F)F)cc1` [Compound I, 1-(3-methyl-3-(4-(trifluoromethyl)phenoxy)butyl)-3-(2-(trifluoromethyl)pyrimidin-5-yl)guanidine] yielded a half-maximal inhibitory concentration (IC50) against Androgen Receptor [1] of 10500 nM. This compound yielded a Ki on Sigma1 of 35 nM.
With `COc1ccc(CCN2CCN(CCCc3ccccc3)CC2)cc1OC` [SA4503, 1-(3,4-dimethoxyphenethyl)-4-(3-phenylpropyl) piperazine, reference compound], the “effect … (in words)” value in the data set on SARS-CoV-2 [4] (FIG. 3) is “did not block infection”.
For `O=C(CCCN1CCC(O)(c2ccc(Cl)cc2)CC1)c1ccc(F)cc1` [haloperidol, 4-[4-(4-chlorophenyl)-4-hydroxypiperidin-1-yl]-1-(4-fluorophenyl)butan-1-one, reference compound], the “effect … (in words)” value in the data set on SARS-CoV-2 [4] (FIG. 3) is given as “suppressed SARS-CoV-2 infection”; with SARS-CoV-2 [4] (FIG. 3, listed as Haloperidol), “clear but modest antiviral effect”.
As for `O=C(OCCN1CCOCC1)C1(c2ccccc2)CCCCC1` [PRE084, 2-morpholin-4-ylethyl 1-phenylcyclohexane-1-carboxylate, reference compound], in the data set on SARS-CoV-2 [4] (FIG. 3), the “effect … (in words)” value was “did not block infection”.
For `COc1cc(NC(=N)NCC(C)(C)COc2ccc(C(F)(F)F)cc2)cnc1C#N` [Compound B, 1-(6-cyano-5-methoxypyridin-3-yl)-3-(2,2-dimethyl-3-(4-(trifluoromethyl)phenoxy)propyl)guanidine], half-maximal inhibition on Androgen Receptor [1] (IC50) required 10000 nM. Besides, the Ki on Sigma1 was 6 nM.
